Laboratory results from ChEMBL document CHEMBL3045554, “Synthesis and antimicrobial screening of N-(1-methyl-1H-pyrazole-4-carbonyl)-thiourea derivatives” (2012).
In brackets after ≈: the same amount, converted by molar mass.

Key:
Assay type in all cases: functional
Klebsiella pneumoniae = assay: Antimicrobial activity against Klebsiella pneumoniae 126/2007 by microdilution method
Bacillus subtilis = assay: Antimicrobial activity against Bacillus subtilis 10.10.2006 by microdilution method
Escherichia coli = assay: Antimicrobial activity against Escherichia coli 637/2007 by microdilution method
Enterococcus faecalis = assay: Antimicrobial activity against Enterococcus faecalis 13773 by microdilution method
Acinetobacter baumannii = assay: Antimicrobial activity against Acinetobacter baumannii 15896 by microdilution method
Pseudomonas aeruginosa = assay: Antimicrobial activity against Pseudomonas aeruginosa 5541 by microdilution method
Staphylococcus aureus = assay: Antimicrobial activity against Staphylococcus aureus by microdilution method

| SMILES | MIC (Klebsiella pneumoniae) | MIC (Bacillus subtilis) | MIC (Escherichia coli) | MIC (Enterococcus faecalis) | MIC (Acinetobacter baumannii) | MIC (Pseudomonas aeruginosa) | MIC (Staphylococcus aureus) |
| --- | --- | --- | --- | --- | --- | --- | --- |
| CC(C)c1ccc(NC(=S)NC(=O)c2cnn(C)c2)cc1 | > 1000 mg/L | > 1000 mg/L | > 1000 mg/L | > 1000 mg/L | > 1000 mg/L | > 1000 mg/L | > 1000 mg/L |
| CCc1ccc(NC(=S)NC(=O)c2cnn(C)c2)cc1 | > 1000 mg/L | > 1000 mg/L | > 1000 mg/L | > 1000 mg/L | > 1000 mg/L | > 1000 mg/L | > 1000 mg/L |
| Cc1ccccc1NC(=S)NC(=O)c1cnn(C)c1 | > 1000 mg/L | > 1000 mg/L | > 1000 mg/L | > 1000 mg/L | > 1000 mg/L | > 1000 mg/L | > 1000 mg/L |
| CCC(C)c1ccccc1NC(=S)NC(=O)c1cnn(C)c1 (configuration not stated) | > 1000 mg/L | > 1000 mg/L | > 1000 mg/L | > 1000 mg/L | > 1000 mg/L | > 1000 mg/L | > 1000 mg/L |
| Cn1cc(C(=O)NC(=S)Nc2ccc(C(C)(C)C)cc2)cn1 | > 1000 mg/L | > 1000 mg/L | > 1000 mg/L | > 1000 mg/L | > 1000 mg/L | > 1000 mg/L | > 1000 mg/L |
| Cc1cccc(NC(=S)NC(=O)c2cnn(C)c2)c1 | 1000 mg/L (≈ 3.64 mM) | 1000 mg/L (≈ 3.64 mM) | > 1000 mg/L | > 1000 mg/L | > 1000 mg/L | > 1000 mg/L | > 1000 mg/L |
